This passage reports T/C results from PubChem BioAssay AID270 (DTP/NCI, 2004).

This experiment has as its system BDF1 mice, s.c. Lewis lung carcinoma, T/C %. The experiment can be described thus: NCI In Vivo Anticancer Drug Screen. Data for tumor model Lewis Lung Carcinoma (subcutaneous) in B6D2F1 (BDF1) mice. How it is done:
The antitumor activity of compounds was measured in mice bearing transplantable tumors. Survival or tumor size were measured and the results are expressed as the measurement made in the treated group (T) divided by the measurement made in the vehicle treated control group (C). The tumor model used in this assay is Lewis Lung Carcinoma (subcutaneous) in B6D2F1 (BDF1) mice

Setting [1] is: endpoint: median survival time, dose: 3.12 mg/kg/injection, schedule: Q01DX009 (ip), vehicle: Klucel (hydroxypropylcellulose) (HPC), higher = longer survival.
[2] abbreviates: endpoint: mean tumor weight, dose: 100.0 mg/kg/injection, schedule: Q01DX011 (ip), vehicle: other, higher = larger tumour.

Results filed as inconclusive are left out.

Consider `O=C(Nc1ccc(C2=NCCCN2)cc1)c1ccc(C(=O)Nc2ccc(C3=NCCCN3)cc2)cc1`, for which the T/C by setting is: (endpoint: mean tumor weight, dose: 0.25 mg/kg/injection, schedule: Q01DX011 (ip), vehicle: other, higher = larger tumour) 73 % of control; (endpoint: mean tumor weight, dose: 0.5 mg/kg/injection, schedule: Q01DX011 (ip), vehicle: other, higher = larger tumour) 98 % of control; (endpoint: mean tumor weight, dose: 1.0 mg/kg/injection, schedule: Q01DX011 (ip), vehicle: other, higher = larger tumour) 85 % of control; (endpoint: mean tumor weight, dose: 2.0 mg/kg/injection, schedule: Q01DX011 (ip), vehicle: other, higher = larger tumour) 73 % of control; (endpoint: mean tumor weight, dose: 4.0 mg/kg/injection, schedule: Q01DX011 (ip), vehicle: other, higher = larger tumour) 7 % of control.

Turning to `CC(=O)Oc1ccc(OC(C)=O)c2c1C(=O)C=CC2=O`, the T/C was 107 % of control (endpoint: median survival time, dose: 0.38 mg/kg/injection, schedule: Q01DX009 (ip), vehicle: Klucel (hydroxypropylcellulose) (HPC), higher = longer survival); 96 % of control (endpoint: median survival time, dose: 0.75 mg/kg/injection, schedule: Q01DX009 (ip), vehicle: Klucel (hydroxypropylcellulose) (HPC), higher = longer survival); 100 % of control (endpoint: median survival time, dose: 1.5 mg/kg/injection, schedule: Q01DX009 (ip), vehicle: Klucel (hydroxypropylcellulose) (HPC), higher = longer survival); 113 % of control (endpoint: median survival time, dose: 3.0 mg/kg/injection, schedule: Q01DX009 (ip), vehicle: Klucel (hydroxypropylcellulose) (HPC), higher = longer survival); 111 % of control under setting [1].

As for `O=P(c1ccccc1)(c1ccccc1)P(=O)(c1ccccc1)c1ccccc1`, the T/C is, setting by setting: (endpoint: mean tumor weight, dose: 33.0 mg/kg/injection, schedule: Q01DX011 (ip), vehicle: other, higher = larger tumour) 117 % of control; (endpoint: mean tumor weight, dose: 66.0 mg/kg/injection, schedule: Q01DX011 (ip), vehicle: other, higher = larger tumour) 79 % of control; under setting [2], 61 % of control; (endpoint: mean tumor weight, dose: 150.0 mg/kg/injection, schedule: Q01DX011 (ip), vehicle: other, higher = larger tumour) 94 % of control; (endpoint: mean tumor weight, dose: 200.0 mg/kg/injection, schedule: Q01DX011 (ip), vehicle: methylcellulose (MC), higher = larger tumour) 87 % of control; (endpoint: mean tumor weight, dose: 300.0 mg/kg/injection, schedule: Q01DX011 (ip), vehicle: methylcellulose (MC), higher = larger tumour) 38 % of control.

`Cc1ccc(Oc2ccc3cc[n+](C)cc3c2)cc1`: the T/C was 96 % of control (endpoint: median survival time, dose: 6.25 mg/kg/injection, schedule: Q01DX009 (ip), vehicle: saline, higher = longer survival) and 101 % of control (endpoint: median survival time, dose: 12.5 mg/kg/injection, schedule: Q01DX009 (ip), vehicle: saline, higher = longer survival).

In the case of `O=C1NC2C(NC(=O)N2Cl)N1Cl` (stereo unspecified), the T/C by setting is: (endpoint: mean tumor weight, dose: 20.0 mg/kg/injection, schedule: Q01DX011 (ip), vehicle: saline, higher = larger tumour) 97 % of control; (endpoint: mean tumor weight, dose: 40.0 mg/kg/injection, schedule: Q01DX011 (ip), vehicle: saline, higher = larger tumour) 114 % of control.

With `O=c1n(CCCl)c(=O)n(CCCl)c(=O)n1CCCl`, the T/C was 121 % of control (endpoint: mean tumor weight, dose: 25.0 mg/kg/injection, schedule: Q01DX011 (ip), vehicle: other, higher = larger tumour); 116 % of control (endpoint: mean tumor weight, dose: 50.0 mg/kg/injection, schedule: Q01DX011 (ip), vehicle: other, higher = larger tumour); 65 % of control under setting [2]; 113 % of control (endpoint: mean tumor weight, dose: 200.0 mg/kg/injection, schedule: Q01DX011 (ip), vehicle: other, higher = larger tumour); 108 % of control (endpoint: mean tumor weight, dose: 400.0 mg/kg/injection, schedule: Q01DX011 (ip), vehicle: other, higher = larger tumour).

`CCCCCCCCCCCCCS`: the T/C is 106 % of control (endpoint: mean tumor weight, dose: 66.0 mg/kg/injection, schedule: Q01DX011 (ip), vehicle: saline, higher = larger tumour); 77 % of control (endpoint: mean tumor weight, dose: 100.0 mg/kg/injection, schedule: Q01DX011 (ip), vehicle: saline, higher = larger tumour); 91 % of control (endpoint: mean tumor weight, dose: 150.0 mg/kg/injection, schedule: Q01DX011 (ip), vehicle: saline, higher = larger tumour).

With `COc1cc(C=Nc2ccc(-n3ccnc3C)cc2)ccc1N(CCCl)CCCl`, the T/C by setting is: (endpoint: median survival time, dose: 2.5 mg/kg/injection, schedule: Q01DX009 (ip), vehicle: Klucel (hydroxypropylcellulose) (HPC), higher = longer survival) 116 % of control; (endpoint: median survival time, dose: 5.0 mg/kg/injection, schedule: Q01DX009 (ip), vehicle: Klucel (hydroxypropylcellulose) (HPC), higher = longer survival) 103 % of control; (endpoint: median survival time, dose: 10.0 mg/kg/injection, schedule: Q01DX009 (ip), vehicle: Klucel (hydroxypropylcellulose) (HPC), higher = longer survival) 113 % of control.

`C=C/C(C)=C/[C@H](C)C(=O)C[C@H](O)CC1CC(=O)NC(=O)C1`: the T/C is, setting by setting: (endpoint: median survival time, dose: 6.25 mg/kg/injection, schedule: Q01DX009 (ip), vehicle: saline with Tween-80, higher = longer survival) 95 % of control; (endpoint: median survival time, dose: 12.5 mg/kg/injection, schedule: Q01DX009 (ip), vehicle: saline with Tween-80, higher = longer survival) 98 % of control; (endpoint: median survival time, dose: 12.5 mg/kg/injection, schedule: Q04DX003 (ip), vehicle: saline with Tween-80, higher = longer survival) 98 % of control; (endpoint: median survival time, dose: 25.0 mg/kg/injection, schedule: Q01DX009 (ip), vehicle: saline with Tween-80, higher = longer survival) 97 % of control; (endpoint: median survival time, dose: 25.0 mg/kg/injection, schedule: Q04DX003 (ip), vehicle: saline with Tween-80, higher = longer survival) 111 % of control; (endpoint: median survival time, dose: 50.0 mg/kg/injection, schedule: Q04DX003 (ip), vehicle: saline with Tween-80, higher = longer survival) 92 % of control. Also, the T/C (endpoint: median survival time, dose: 100.0 mg/kg/injection, schedule: Q04DX003 (ip), vehicle: saline with Tween-80, higher = longer survival) was 101 % of control.

For the compound `CNCc1ccccc1`, the T/C was 105 % of control (endpoint: mean tumor weight, dose: 25.0 mg/kg/injection, schedule: Q01DX011 (ip), vehicle: carboxymethylcellulose (CMC), higher = larger tumour); 124 % of control (endpoint: mean tumor weight, dose: 50.0 mg/kg/injection, schedule: Q01DX011 (ip), vehicle: carboxymethylcellulose (CMC), higher = larger tumour); 65 % of control (endpoint: mean tumor weight, dose: 100.0 mg/kg/injection, schedule: Q01DX011 (ip), vehicle: carboxymethylcellulose (CMC), higher = larger tumour).

`C=C1C(=O)OC2C1CCC(C)C1CCC(=O)OC12C` (stereo unspecified): the T/C is, setting by setting: (endpoint: median survival time, dose: 1.6 mg/kg/injection, schedule: Q01DX009 (ip), vehicle: Klucel (hydroxypropylcellulose) (HPC), higher = longer survival) 95 % of control; under setting [1], 102 % of control; (endpoint: median survival time, dose: 3.13 mg/kg/injection, schedule: Q01DX009 (ip), vehicle: Klucel (hydroxypropylcellulose) (HPC), higher = longer survival) 104 % of control; (endpoint: median survival time, dose: 6.25 mg/kg/injection, schedule: Q01DX009 (ip), vehicle: Klucel (hydroxypropylcellulose) (HPC), higher = longer survival) 102 % of control; (endpoint: median survival time, dose: 12.5 mg/kg/injection, schedule: Q01DX009 (ip), vehicle: Klucel (hydroxypropylcellulose) (HPC), higher = longer survival) 106 % of control; (endpoint: median survival time, dose: 25.0 mg/kg/injection, schedule: Q01DX009 (ip), vehicle: Klucel (hydroxypropylcellulose) (HPC), higher = longer survival) 92 % of control.

As to `CNc1nc(N(C)C)nc(N(C)C)n1`, the T/C by setting is: (endpoint: median survival time, dose: 67.0 mg/kg/injection, schedule: Q01DX009 (ip), vehicle: water, higher = longer survival) 91 % of control; (endpoint: median survival time, dose: 100.0 mg/kg/injection, schedule: Q01DX009 (ip), vehicle: water, higher = longer survival) 116 % of control.

Regarding `O=C(O)C1CCCCN1` (stereo unspecified), the T/C reads like this: (endpoint: mean tumor weight, dose: 133.0 mg/kg/injection, schedule: Q01DX011 (ip), vehicle: other, higher = larger tumour) 110 % of control; (endpoint: mean tumor weight, dose: 300.0 mg/kg/injection, schedule: Q01DX011 (ip), vehicle: other, higher = larger tumour) 123 % of control; (endpoint: mean tumor weight, dose: 450.0 mg/kg/injection, schedule: Q01DX011 (ip), vehicle: other, higher = larger tumour) 116 % of control.

Take `CN(C)N=Nc1n[nH]nc1C(N)=O`: the T/C reads like this: (endpoint: median tumor weight (est.), dose: 134.5 mg/kg/injection, schedule: Q01DX009 (ip), vehicle: saline, higher = larger tumour) 102 % of control; (endpoint: median tumor weight (est.), dose: 269.0 mg/kg/injection, schedule: Q01DX009 (ip), vehicle: saline, higher = larger tumour) 81 % of control; (endpoint: median tumor weight (est.), dose: 538.0 mg/kg/injection, schedule: Q01DX009 (ip), vehicle: saline, higher = larger tumour) 79 % of control.

Turning to `CCN(CC)CCCC(C)Nc1c2ccc(Cl)cc2nc2ccc(OC)cc12` (stereo unspecified), the T/C reads like this: (endpoint: median survival time, dose: 8.0 mg/kg/injection, schedule: Q01DX009 (ip), vehicle: saline, higher = longer survival) 103 % of control; (endpoint: median survival time, dose: 8.0 mg/kg/injection, schedule: Q01DX009 (ip), vehicle: suspension in saline, higher = longer survival) 95 % of control; (endpoint: median survival time, dose: 16.0 mg/kg/injection, schedule: Q01DX009 (ip), vehicle: saline, higher = longer survival) 101 % of control; (endpoint: median survival time, dose: 16.0 mg/kg/injection, schedule: Q01DX009 (ip), vehicle: suspension in saline, higher = longer survival) 113 % of control; (endpoint: median survival time, dose: 32.0 mg/kg/injection, schedule: Q01DX009 (ip), vehicle: saline with Tween-80, higher = longer survival) 163 % of control; (endpoint: median survival time, dose: 32.0 mg/kg/injection, schedule: Q01DX009 (ip), vehicle: suspension in saline, higher = longer survival) 104 % of control. For the same compound, the T/C was 112 % of control (endpoint: median survival time, dose: 64.0 mg/kg/injection, schedule: Q01DX009 (ip), vehicle: saline with Tween-80, higher = longer survival); 101 % of control (endpoint: median survival time, dose: 64.0 mg/kg/injection, schedule: Q01DX009 (ip), vehicle: saline, higher = longer survival); 105 % of control (endpoint: median survival time, dose: 64.0 mg/kg/injection, schedule: Q01DX009 (ip), vehicle: suspension in saline, higher = longer survival).

For the compound `CCCNC(=NC)c1ccc(NC(=O)c2ccc(C(=O)Nc3ccc(C(=NC)NCCC)cc3)cc2)cc1`, the T/C is 124 % of control (endpoint: mean tumor weight, dose: 2.5 mg/kg/injection, schedule: Q01DX011 (ip), vehicle: other, higher = larger tumour) and 56 % of control (endpoint: mean tumor weight, dose: 5.0 mg/kg/injection, schedule: Q01DX011 (ip), vehicle: other, higher = larger tumour).
